Measurements taken from ChEMBL document CHEMBL1201862, “PubChem BioAssay data set” (2004).
Where “and” joins values, the source holds several entries; their conditions need not be identical. Identical values can stand only once.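 Results reflect a 48-hour exposure of cells in 96-well plates to compound at five concentrations. Here, GI50 denotes the concentration required for 50% inhibition of growth.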 Calls of active or inactive are those of the source. Cut-off read from the data, not from the text of the source: active = GI50 up to about 1.1 µM and inactive = higher.

Tests used:
Assay in all cases: growth of human tumour cells (NCI), 48 h
HL-60 = test system: HL-60
NCI-H460 = test system: NCI-H460
A498 = test system: A498
COLO 205 = test system: COLO 205
DU-145 = test system: DU-145
EKVX = test system: EKVX
HCC 2998 = test system: HCC 2998
HCT-116 = test system: HCT-116
HCT-15 = test system: HCT-15
HOP-92 = test system: HOP-92
HT-29 = test system: HT-29
Hs-578T = test system: Hs-578T
IGROV-1 = test system: IGROV-1
K562 = test system: K562
KM12 = test system: KM12
LOX IMVI = test system: LOX IMVI
M14 = test system: M14
MCF7 = test system: MCF7
MDA-MB-231 = test system: MDA-MB-231
MDA-N = test system: MDA-N
Malme-3M = test system: Malme-3M
NCI-H226 = test system: NCI-H226
NCI-H23 = test system: NCI-H23
NCI-H522 = test system: NCI-H522
NCI/ADR-RES = test system: NCI/ADR-RES
OVCAR-5 = test system: OVCAR-5
OVCAR-8 = test system: OVCAR-8
RPMI-8226 = test system: RPMI-8226
RXF 393 = test system: RXF 393
SF-268 = test system: SF-268
SF-295 = test system: SF-295
SF-539 = test system: SF-539
SK-MEL-2 = test system: SK-MEL-2
SK-MEL-5 = test system: SK-MEL-5
SN12C = test system: SN12C
SNB-75 = test system: SNB-75
T47D = test system: T47D
TK-10 = test system: TK-10
UACC-257 = test system: UACC-257
UACC-62 = test system: UACC-62
UO-31 = test system: UO-31
786-0 = test system: 786-0
A549 = test system: A549
ACHN = test system: ACHN
CAKI-1 = test system: CAKI-1
HOP-62 = test system: HOP-62
MDA-MB-435 = test system: MDA-MB-435
MOLT-4 = test system: MOLT-4
OVCAR-3 = test system: OVCAR-3
OVCAR-4 = test system: OVCAR-4
PC-3 = test system: PC-3
SK-MEL-28 = test system: SK-MEL-28
SK-OV-3 = test system: SK-OV-3
SNB-19 = test system: SNB-19
SW-620 = test system: SW-620
U-251 = test system: U-251
CCRF-CEM = test system: CCRF-CEM
SR = test system: SR

CC(=O)OCC1OC(n2c(-c3ccc(C)cc3)cc(-c3ccco3)c(C#N)c2=O)C(OC(C)=O)C(OC(C)=O)C1OC(C)=O (stereo unspecified) was tested, and the GI50 (HL-60) was 2.72 µM (inactive) and the GI50 (NCI-H460) was 2.59 µM (inactive).
For COC(=O)C1C(O)CCC2CN3CCc4c([nH]c5ccccc45)C3CC21 (stereo unspecified), the GI50 (A498) was > 100 µM (inactive), the GI50 (COLO 205) was > 100 µM (inactive) and > 68.7 µM (inactive) and the GI50 (DU-145) was > 100 µM (inactive) and > 87.7 µM (inactive). The GI50 (EKVX) was > 91 µM (inactive), the GI50 (HCC 2998) was > 100 µM (inactive) and the GI50 (HCT-116) was > 100 µM (inactive). For the same compound, the GI50 (HCT-15) was over 67.3 µM, the GI50 (HOP-92) was > 51.4 µM (inactive) and the GI50 (HT-29) was > 100 µM (inactive) and 72.8 µM (inactive). For the same compound, the GI50 (Hs-578T) was > 100 µM (inactive), the GI50 (IGROV-1) was 67.1 µM (inactive) and the GI50 (K562) was > 100 µM (inactive). For the same compound, the GI50 (KM12) was > 95.1 µM (inactive), the GI50 (LOX IMVI) was > 100 µM (inactive) and the GI50 (M14) was > 100 µM (inactive). For the same compound, the GI50 (MCF7) was > 100 µM (inactive) and > 72.9 µM (inactive), the GI50 (MDA-MB-231) was > 100 µM (inactive) and the GI50 (MDA-N) was > 100 µM (inactive) and > 92 µM (inactive). For the same compound, the GI50 (Malme-3M) was > 68.1 µM (inactive), the GI50 (NCI-H226) was > 100 µM (inactive) and the GI50 (NCI-H23) was > 100 µM (inactive). For the same compound, the GI50 (NCI-H522) was > 100 µM (inactive), the GI50 (NCI/ADR-RES) was > 100 µM (inactive) and the GI50 (OVCAR-5) was > 66.2 µM (inactive). The GI50 (OVCAR-8) was > 100 µM (inactive), the GI50 (RPMI-8226) was > 100 µM (inactive) and the GI50 (RXF 393) was > 100 µM (inactive). For the same compound, the GI50 (SF-268) was > 78 µM (inactive), the GI50 (SF-295) was > 100 µM (inactive) and the GI50 (SF-539) was > 100 µM (inactive). For the same compound, the GI50 (SK-MEL-2) was > 100 µM (inactive) and > 80.5 µM (inactive), the GI50 (SK-MEL-5) was > 100 µM (inactive) and the GI50 (SN12C) was > 100 µM (inactive). The GI50 (SNB-75) was 56 µM (inactive), the GI50 (T47D) was > 71.4 µM (inactive) and the GI50 (TK-10) was > 100 µM (inactive). The GI50 (UACC-257) was > 87.1 µM (inactive), the GI50 (UACC-62) was > 100 µM (inactive) and the GI50 (UO-31) was 54.2 µM (inactive).
Cc1ccccc1NC(=O)Cc1csc(N/N=C2\NC(=O)/C(=C/c3cccc([N+](=O)[O-])c3)S2)n1 was tested, and the GI50 (786-0) was 45.2 µM (inactive), the GI50 (A549) was 16.7 µM (inactive) and the GI50 (ACHN) was 15.6 µM (inactive). The GI50 (CAKI-1) was 19.7 µM (inactive), the GI50 (COLO 205) was 34.2 µM (inactive) and the GI50 (DU-145) was 36.1 µM (inactive). For the same compound, the GI50 (EKVX) was 13.5 µM (inactive), the GI50 (HCC 2998) was 14.3 µM (inactive) and the GI50 (HCT-116) was 36.7 µM (inactive). For the same compound, the GI50 (HCT-15) was 15.8 µM, the GI50 (HL-60) was 17.8 µM (inactive) and the GI50 (HOP-62) was 22.9 µM (inactive). The GI50 (HOP-92) was 15.8 µM (inactive), the GI50 (HT-29) was 34.7 µM (inactive) and the GI50 (IGROV-1) was 14.1 µM (inactive). The GI50 (KM12) was 16.6 µM (inactive), the GI50 (LOX IMVI) was 30.3 µM (inactive) and the GI50 (M14) was 17 µM (inactive). The GI50 (MCF7) was 41.8 µM (inactive), the GI50 (MDA-MB-231) was 21.7 µM (inactive) and the GI50 (MDA-MB-435) was 19.8 µM (inactive). For the same compound, the GI50 (MDA-N) was 30.5 µM (inactive), the GI50 (MOLT-4) was 23.9 µM (inactive) and the GI50 (NCI-H226) was 17.8 µM (inactive). The GI50 (NCI-H23) was 19.1 µM (inactive), the GI50 (NCI-H460) was 15.6 µM (inactive) and the GI50 (NCI/ADR-RES) was 31.3 µM (inactive). For the same compound, the GI50 (OVCAR-3) was 19.7 µM (inactive), the GI50 (OVCAR-4) was 20.6 µM (inactive) and the GI50 (OVCAR-5) was 22.6 µM (inactive). The GI50 (OVCAR-8) was 31.8 µM (inactive), the GI50 (PC-3) was 16.6 µM (inactive) and the GI50 (SF-295) was 18.1 µM (inactive). For the same compound, the GI50 (SF-539) was 17.1 µM (inactive), the GI50 (SK-MEL-28) was 19.1 µM (inactive) and the GI50 (SK-MEL-2) was 26.4 µM (inactive). The GI50 (SK-MEL-5) was 23.9 µM (inactive), the GI50 (SK-OV-3) was 53.1 µM (inactive) and the GI50 (SN12C) was 36.6 µM (inactive). The GI50 (SNB-19) was 16.1 µM (inactive), the GI50 (SNB-75) was 13.1 µM (inactive) and the GI50 (SW-620) was 40.6 µM (inactive). For the same compound, the GI50 (T47D) was 17.1 µM (inactive), the GI50 (TK-10) was 18.9 µM (inactive) and the GI50 (U-251) was 21.5 µM (inactive). For the same compound, the GI50 (UACC-257) was 20.3 µM (inactive) and the GI50 (UO-31) was 13.1 µM (inactive).
In the case of COc1cc(O)c2c(=O)cc(-c3ccc(O)cc3O)oc2c1CC=C(C)C [ARTOCARPETIN A], the GI50 (786-0) is reported as 26.6 µM (inactive), the GI50 (A498) is reported as 22.1 µM (inactive) and the GI50 (A549) is reported as 14.2 µM (inactive). The GI50 (ACHN) was 16.3 µM (inactive), the GI50 (CAKI-1) was 17.1 µM (inactive) and the GI50 (CCRF-CEM) was 15.4 µM (inactive). For the same compound, the GI50 (COLO 205) was 9.25 µM (inactive), the GI50 (DU-145) was 30.2 µM (inactive) and the GI50 (EKVX) was 26.1 µM (inactive). For the same compound, the GI50 (HCT-116) was 18.1 µM (inactive), the GI50 (HCT-15) was 11.6 µM and the GI50 (HL-60) was 10.4 µM (inactive). The GI50 (HOP-92) was 19.6 µM (inactive), the GI50 (HT-29) was 4.35 µM (inactive) and the GI50 (Hs-578T) was 28.4 µM (inactive). The GI50 (IGROV-1) was 20.3 µM (inactive), the GI50 (K562) was 17 µM (inactive) and the GI50 (KM12) was 6.12 µM (inactive). For the same compound, the GI50 (LOX IMVI) was 11.9 µM (inactive), the GI50 (M14) was 13.8 µM (inactive) and the GI50 (MCF7) was 20.3 µM (inactive). The GI50 (MDA-MB-231) was 22.1 µM (inactive), the GI50 (MDA-MB-435) was 18.7 µM (inactive) and the GI50 (MDA-N) was 19.3 µM (inactive). The GI50 (MOLT-4) was 8.93 µM (inactive), the GI50 (Malme-3M) was 16.3 µM (inactive) and the GI50 (NCI-H226) was 12.2 µM (inactive). For the same compound, the GI50 (NCI-H23) was 17.6 µM (inactive), the GI50 (NCI-H460) was 14.3 µM (inactive) and the GI50 (NCI-H522) was 16 µM (inactive). For the same compound, the GI50 (NCI/ADR-RES) was 27 µM (inactive), the GI50 (OVCAR-4) was 13.1 µM (inactive) and the GI50 (OVCAR-5) was > 100 µM (inactive). The GI50 (OVCAR-8) was 16.9 µM (inactive), the GI50 (PC-3) was 12.9 µM (inactive) and the GI50 (RPMI-8226) was 20.3 µM (inactive). For the same compound, the GI50 (RXF 393) was 6.3 µM (inactive), the GI50 (SF-268) was 17.4 µM (inactive) and the GI50 (SF-295) was 12.9 µM (inactive). The GI50 (SF-539) was 18.1 µM (inactive), the GI50 (SK-MEL-28) was 29.1 µM (inactive) and the GI50 (SK-MEL-2) was 17.2 µM (inactive). For the same compound, the GI50 (SK-MEL-5) was 18.3 µM (inactive), the GI50 (SN12C) was 16.4 µM (inactive) and the GI50 (SNB-19) was 18.3 µM (inactive). For the same compound, the GI50 (SNB-75) was 20.7 µM (inactive), the GI50 (SR) was 4.5 µM (inactive) and the GI50 (SW-620) was 24.3 µM (inactive). For the same compound, the GI50 (TK-10) was 27.7 µM (inactive), the GI50 (U-251) was 17.1 µM (inactive) and the GI50 (UACC-257) was 28.4 µM (inactive). The GI50 (UACC-62) was 20 µM (inactive) and the GI50 (UO-31) was 17.9 µM (inactive).
